According to patent publication US5556862A, “Pharmaceutical compositions containing isoquinoline derivatives” (Nippon Zoki Pharmaceutical Co., Ltd., priority 1993, dated 1996):
Counter-ions that a name gives are not always drawn.

Molecular target: PDEIV
Test: Inhibitory activity towards phosphodiesterase type IV isozyme ([3H] cAMP substrate, in the presence of 10 μM cilostazol)
Type: biochemical
Conditions: type IV isozyme from porcine artery, 30° C.

## CCOc1ccc(CC2=NCCc3cc(OCC)c(OCC)cc32)cc1OCC [Compound 4, 1-(3',4'-Diethoxybenzyl)-6,7-diethoxy-3,4-dihydroisoquinoline hydrochloride]
pH 7.5, hydrochloride
  IC50: 8.1 µM

## CCOc1ccc(CC2=NCCc3cc(OCC)c(OCC)cc32)cc1OCC [Compound 6, 1-(3',4'-Diethoxybenzyl)-6,7-diethoxy-3,4-dihydroisoquinolinium-theophylline-7-acetate monohydrate]
pH 7.5, monohydrate
  IC50: 17.2 µM

## CCCCOc1cc(CC2CNC(=O)N2)ccc1OC (stereo not drawn) [Ro20-1724, reference compound]
pH 7.5
  IC50: 26.1 µM
